We go through 3 compounds from patent publication US20150202203A1, “Method of Treating Gastrointestinal Stromal Tumors” (Novartis AG, priority 2012, published 2015).

“Also recorded” adds a separate entry of the source. Like-named read-outs stand apart in the source and are kept apart here.

One assay relates to GIST-T1 cells. Nature of the assay: CellTiter-Glo cell viability assay, GIST-T1.
Another assay has as its system GIST430 cells. Particulars: Imatinib combined with Dovitinib, 72 hrs. The procedure:
GIST-T1 was obtained from Kochi Medical School, Kochi, Japan.
GIST882 cells were cultured in RPMI-1640 (ATCC Catalog #30-2001) supplemented with 15% FBS and 1% L-glutamine, GIST48 cells in F10 (Gibco/Invitrogen Catalog #11550-043) supplemented with 15% FBS, 0.5% Mito+ (BD Bioscience Catalog #355006), 1% BPE (BD Bioscience/Fisher Catalog#354123) and 1% L-glutamine, GIST430 cells in IMEM (Gib-co/Invitrogen Catalog #12440-053) supplemented with 15% FBS and 1% L-glutamine, and GIST-T1 cells in DMEM (Gibco/Invitrogen Catalog #11965) supplemented with 10% FBS.
10,000 cells suspended in 80 μl media were seeded into each well of a 96-well cell-culture plate and grown for 24 hours prior to treatment. 10 μl of 60 μg/mL heparin (Sigma Catalog # H3149) was added to each well, and then 10 μl of 50 μg/mL FGF2 (R&D Catalog #233-FB/CF) or media was added to each well of the plates. 10 μl of each of the compound dilutions described above and 10 μl of media were added to wells to a […] such that all pair-wise combinations as well as the single agents were represented.

Another assay relates to GIST. Particulars: cited from earlier work.
Another assay deals with KIT. Nature of the assay: KIT inhibition by Western blot in GIST cell lines. Format: cell-based, human. To be noted: GIST-T1, GIST882 and GIST48; compared with dovitinib.
[1] abbreviates: Imatinib combined with Dovitinib, 72 hrs.
Setting [2] is: absence of added FGF2, single agent.
Where [3] appears, read: presence of added FGF2, single agent.

Text for GIST-T1 cells: (§1) GIST882 was established from an untreated human GIST with a homozygous missense mutation in KIT exon 13, encoding a K642E mutant KIT protein (Tuveson D A, Willis N A, et al. Oncogene 2001; 20: 5054-5058). […] GIST48 has a primary homozygous exon 11 missense mutation (V560D) and a secondary heterozygous exon 17 missense mutation (D820A). GIST430 has a primary heterozygous exon 11 in-frame deletion and a secondary heterozygous exon 13 missense mutation (V654A). […] It was established from a metastatic human GIST with a heterozygous deletion of 57 bases in exon 11 of KIT (Taguchi T, Sonobe H, Toyonaga S, et al. Lab Invest 2002; 82: 663-665).
(§2) 10,000 cells suspended in 80 μl media were seeded into each well of a 96-well cell-culture plate and grown for 24 hours prior to treatment. 10 μl of 60 μg/mL heparin (Sigma Catalog # H3149) was added to each well, and then 10 μl of 50 μg/mL FGF2 (R&D Catalog #233-FB/CF) or media was added to each well of the plates. 10 μl of each of the compound dilutions described above and 10 μl of media were added to wells to a final volume 120 μl such that all pair-wise combinations as well as the single agents were represented. Cells were incubated for 72 hrs at 37° C. in a 5% CO2 incubator following compound addition. Cell proliferation was measured using the CellTiter-Glo luminescent cell viability assay (Promega catalog # G755B) and Victor4 plate reader (Perkin Elmer).
Text for GIST882 cells: as §1, §2
Experimental for KIT: Protein lysates were prepared from cell monalayers using RIPA buffer (Cell Signaling Technology Catalog #9806) according to the procedure described by the manufacturer. Antibod-ies to detect phospho-KIT (Catalog #3073S), total KIT (Catalog #3308), phospho-AKT S473 (Catalog #4058), total AKT (Catalog #9272), phospho-ERK (Catalog #9101), total ERK (Catalog #9107) and phospho-FRS2 (Catalog #3864) were purchased from Cell Signaling Technology. Antibody to GAPDH (Catalog # MAB374) was purchased from Millipore and anti-FRS2(H-91) (Catalog #sc-8318) from Santa Cruz. Bound antibody was detected using the LI-COR Odyssey Infrared Imaging System.

For `CN1CCN(c2ccc3nc(-c4c(N)c5c(F)cccc5[nH]c4=O)[nH]c3c2)CC1` [Dovitinib, 4-amino-5-fluoro-3-[6-(4-methylpiperazin-1-yl)-1H-benzimidazol-2-yl]quinolin-2(1H)-one], the “Combination Index for 70% inhibition of GIST cell proliferation” value was 0.965 with GIST882 cells (setting [1]), 0.835 with GIST-T1 cells (setting [1]) and 0.624 in the assay on GIST430 cells. Further, the “Synergy Score for inhibition of GIST cell proliferation” value in the assay on GIST882 cells (setting [1]) is 0.321; in the assay with GIST-T1 cells (setting [1]), 0.422; in the assay on GIST430 cells, 0.635. Moreover, the growth inhibition result was “effective” in the assay with GIST882 cells (setting [2]); “restores maximum growth inhibition; also recorded: maximum inhibition was restored to levels comparable to the absence of FGF2” with GIST882 cells (setting [3]); “effective” in the assay with GIST-T1 cells (setting [2]); “restores maximum growth inhibition; also recorded: maximum inhibition was restored to levels comparable to the absence of FGF2” in the assay with GIST-T1 cells (setting [3]); “same level of maximum inhibition in the presence or absence of added FGF2” with GIST-T1 cells (presence of added FGF2, single agent, listed as Dovtinib).

Turning to `Cc1ccc(NC(=O)c2ccc(CN3CCN(C)CC3)cc2)cc1Nc1nccc(-c2cccnc2)n1` [Imatinib, 4-(4-methylpiperazin-1-ylmethyl)-N-[4-methyl-3-(4-(pyridin-3-yl)pyrimidin-2-ylamino)phenyl]-benzamide], the “progression-free survival (PFS)” value with GIST (800 mg/day compared to 400 mg/day, advanced GIST harboring KIT exon 9 mutations) is reported as “significantly improves”. Also, in the assay on GIST (adjuvant 400 mg once daily, 36 months vs 12 months (SSGXVIII/AIO)), the “RFS and overall survival” value was “superior to 12 months”. Also, the “recurrence-free survival (RFS)” value in the assay with GIST (adjuvant 400 mg/day for 12 months vs placebo, after complete resection (ACOSOGZ9001)) is on record as “significantly prolonged RFS”. Moreover, in the assay on KIT, the “KIT inhibition (Western blot)” value is given as “more potent KIT inhibitor than dovitinib”. Moreover, the growth inhibition result in the assay with GIST882 cells (setting [2]) is “efficacious”; in the assay with GIST882 cells (setting [3]), “less sensitive”; with GIST-T1 cells (setting [2]), “efficacious”; in the assay on GIST-T1 cells (setting [3]), “less sensitive”.

As for `Cc1cn(-c2cc(NC(=O)c3ccc(C)c(Nc4nccc(-c5cccnc5)n4)c3)cc(C(F)(F)F)c2)cn1` [Nilotinib, 4-methyl-3-[[4-(3-pyridinyl)-2-pyrimidinyl]amino]-N-[5-(4-methyl-1H-imidazol-1-yl)-3-(trifluoromethyl)phenyl]benzamide], the growth inhibition entry in the assay on GIST882 cells (setting [2]) is “sensitive to KIT inhibition”; in the assay with GIST882 cells (setting [3]), “less sensitive”; in the assay on GIST-T1 cells (setting [2]), “inhibits growth of GIST-T1 cells”; in the assay on GIST-T1 cells (absence of added FGF2, single agent, listed as nilotinib), “sensitive to KIT inhibition”; with GIST-T1 cells (setting [3]), “less sensitive; also recorded: significantly decreased”. The “GI50 shift in the presence of added FGF2” value with GIST882 cells (with vs without added FGF2) and with GIST-T1 cells (with vs without added FGF2) was “greater than 10 fold” throughout.
